We go through 1 compound from PMC10350924, “Design, Synthesis, and Pharmacological Characterization of a Potent Soluble Epoxide Hydrolase Inhibitor for the Treatment of Acute Pancreatitis” (Journal of Medicinal Chemistry, 2023).

In general, AUC(0-inf) refers to total exposure, with the tail of the curve extrapolated. High values mean high exposure, low ones low exposure. Broadly, the Cmax is the highest concentration seen after dosing. As usually defined, the Tmax is the time at which the peak concentration occurs. For orientation: half-life means the time needed for the level to fall by half in the phase considered. A higher half-life goes with slow decline.

Series [1] in a line: In vivo pharmacokinetic profile in mice after i.p. administration. The conditions noted are these: mouse, plasma, ip, 10 mg/kg i.p., single dose. How it is done: For analysis of plasma levels of 28, mice (6 per group) received 10 mg/kg i.p. injection in a volume of 500 μL of DMSO 2% in saline. After selected time points, the mice were sacrificed (CO2 atmosphere) and blood (approximately 0.7–0.9 mL) was collected by intracardiac puncture using citrate as an anticoagulant. Then, plasma was obtained by centrifugation at 800g at 4 °C for 10 min and immediately frozen at −80 °C. The analyses were performed using a Shimadzu Nexera UHPLC (Kyoto, Japan) consisting of two LC-30AD pumps, a SIL-30AC autosampler, a CTO-20AC column oven, and a CBM-20A controller. Chromatographic conditions have previously been reported in the Chemical and Metabolic Stability section. The chromatographic system was coupled online to a triple quadrupole LCMS-8050 (Shimadzu) equipped with an electrospray ionization (ESI) source operating in positive mode. Quantification was performed in scheduled multiple reaction monitoring (MRM) mode. The transitions (Table S2) were m/z 456 > 149.2 (quantifier ion), 456 > 166.2 (qualifier ion) for compound 28, and m/z 458 > 149.2 (quantifier ion), 458 > 166.2 (qualifier ion) for IS. Dwell time, interface temperature, DL temperature, and heat block temperature were set to 100 ms, 300, 250, and 350 °C, respectively. Nebulizing gas, heating gas, and drying gas flow were set to 3, 10, and 10 L min^–1, respectively. All of the data was collected in the centroid mode and acquired and processed using Lab Solution workstation software. Stock solutions of 28 and IS were prepared in DMSO (1 mg mL^–1). The standards of 28 were prepared by dilution of the stock solution with methanol to obtain the working stock solutions in plasma of the following concentrations: 0.2, 0.5, 1, 5, 10, 20, and 50 ng mL^–1 for calibration curve. Calibration standards were prepared by spiking 100 μL of mouse plasma with a suitable working solution of 28 and IS to obtain a final concentration of 5 ng mL^–1 of the IS in each sample. For the extraction of 28 from mouse plasma, the method of protein precipitation was employed. Briefly, the frozen plasma samples were thawed at room temperature. 200 μL of ice-cold acetonitrile containing IS was added to 100 μL of plasma. The extraction was performed by vortex mixing for 5 min, followed by centrifugation for 10 min at 14,600 rpm at 25 °C. The supernatants were collected, filtered by […] RC-membranes, and then injected in UHPLC-MS/MS. […] The maximum concentration (Cmax) and time to reach Cmax (Tmax) were determined from the plasma concentration versus time data. The area under the plasma concentration–time curve from time 0 to infinity concentration (AUC0–∞) was determined using the linear trapezoidal method. The elimination half-life (T1/2) was calculated using ln(2)/ke.

Series [2] has as its system cerulein-induced acute pancreatitis. Description: Cerulein-induced acute pancreatitis in mice. Type of series: in vivo. How it is done:
Male CD-1 mice (33–39 g, 8 weeks, Charles River Laboratories; Calco, Italy) were fed with standard rodent chow and water and acclimated for 4 days at a 12 h light and 12 h dark schedule in a constant air-conditioned environment (21 ± 2 °C). The mice were randomly assigned to groups, and experiments were carried out during the light phase. Experimental procedures were conducted in conformity with Italian (D.L. 26/2014) and European (directive 2010/63/EU) regulations on the protection of animals used for scientific purposes and approved by the Italian Ministry. Acute pancreatitis (AP) was induced in mice by intraperitoneal (i.p.) injections of cerulein (50 μg/kg) hourly (5 times).[56] The groups were: (a) Sham group which received saline i.p. hourly (×5); […] The mice were killed 6 h after the first cerulein injection. Blood samples were obtained by direct intracardiac puncture. Pancreases and lungs were removed immediately, frozen, and stored at −80 °C until assayed. Portions of these organs were also fixed in formaldehyde for histological and immunohistochemical examination. Pancreas and lung sections (6 μm) were stained for hematoxylin & eosin (H&E). Evaluation of pancreas edema and inflammation signs were performed with a three-point scoring system. […] Analysis was performed in a blinded manner. Evaluation of lung edema and inflammatory infiltration was performed with three-point scoring system: 0, absent; 1, mild; 2, moderate; 3, severe. […] Tissue sections were then incubated with normal goat serum (Vector Laboratories, Newark, California) for 20 min to reduce nonspecific antibody interactions. Sections were incubated with primary antibody diluted in 0.01 M PBS, 2.5% normal serum (anti-Neutrophils rat monoclonal antibody, dilution 1:100, Abcam) for 30 min. After rinsing with PBS 0.01 M for 5 min, slides were incubated with biotinylated goat anti-rat IgG (Vector Laboratories, Newark, California), diluted 1:200, for 30 min. After rinsing with PBS 0.01 M for 5 min, slides were incubated with VECTASTAIN ABC Reagent (Vector Laboratories, Newark, California) for 30 min. Color development was performed using […] 3,3′-diaminobenzidine solution (Sigma-Aldrich, Milan, Italy), and sections were analyzed using Leica Microsystem with a magnification of 20x. Semiquantitative determination of protein expression was obtained with ImageJ/Fiji software. Liver injury was assessed by measuring the rise in plasma levels of alanine aminotransferase (ALT, a specific marker for hepatic parenchymal injury) and aspartate aminotransferase (AST, a nonspecific marker for hepatic injury) 6 h after cerulein injection by a clinical laboratory. Results are expressed in international units per milliliter.

Setting [3] is: 10 mg/kg i.p. 0.5 and 2.5 h after first cerulein injection, 6 h.
Where [4] appears, read: 10 mg/kg i.p., 6 h after first cerulein injection.

Consider `CC(C)c1ccc(Cn2ccc3cc(NC(=O)NCC45C[C@H]6C[C@@H](C4)C[C@@H](C5)C6)ccc32)cc1` [Compound 28, 1-(((3R,5R,7R)-Adamantan-1-yl)methyl)-3-(1-(4-isopropylbenzyl)-1H-indol-5-yl)urea], for which, in series [1], the AUC(0-inf) at 24 h is 29.9 ng·h/mL, the Cmax at 24 h was 4.17 ng/mL, the Tmax at 24 h was found to be 2 h and the half-life at 24 h was 7.6 h. Also, in series [2] (setting [3]), the “lung inflammation and neutrophilia” value is reported as “reduced”; the “pancreatic injury (edema, cell infiltration, neutrophil numbers)” value is on record as “protective effect”. In series [2] (setting [4]), the “serum ALT levels” value is recorded as “decreased” and the “serum AST levels” value is reported as “decreased”.
